According to patent US20240342143A1, “APPLICATION OF ALKALOID COMPOUND HIP IN TREATMENT OF CARDIAC TRAUMA” (HUZHOU COLLEGE, priority 2022, published 2024):

Key:
Assay type in all cases: cell-based
Cleaved-Caspase-3 = experiment: Western blot of Cleaved-Caspase-3 expression in DOX-induced H9c2 cardiomyocytes; conditions: FIG. 3
Method: (§1) (2) From H9c2 cardiomyocytes which were treated with different tested seabuckthorn alkaloids for 1 h and then treated with 2.5 μM DOX for 24 h, proteins were extract. That is, the H9c2 cardiomyocytes were lysed and scraped, and the cell lysate were collected and centrifuged at 12,000 g for 15 min to collect the supernatant and discard the precipitate. The supernatant was stored at […], and quantified for proteins using the BCA method for later use. SDS-PAGE electrophoresis was performed by using 5% stacking gel (Step1: 80V, 30 min; Step2: 120V, 180 min). The membrane transfer was performed using a PVDF membrane for 30 min at 80 mA. Blocking and hybridization was performed by blocking in 5% nonfat milk powder for 1 h, incubating with a primary antibody overnight and incubating with a secondary antibody at room temperature for 1-2 h with gentle shaking. Development was performed by ECL reagent development. Expression levels of intracellular Caspase-3 and p-JNK/JNK proteins were observed using a gel imaging system.

p-JNK = experiment: Western blot of p-JNK/JNK expression in DOX-induced H9c2 cardiomyocytes; conditions: FIG. 4; for expression level of p-JNK vs DOX model group: 1 h, then 2.5 μM DOX 24 h
Method: as §1

H9c2 cardiomyocytes = experiment: Toxicity effect of Hip on H9c2 cardiomyocytes (MTT colorimetric method); conditions: 24 h, FIG. 1
Method: H9c2 cells were incubated with the alkaloid compound Hip at different concentrations (0.1μ, 1μ, 5μ, 10μ, 20μ, 40μ, 80μ, 160 μM) of for 24 h. The toxicity effect of the alkaloid compound on cardiomyocytes was evaluated by using the MTT colorimetric method.

[1] = system: DOX-induced H9c2 cardiomyocytes; experiment: Effect of Hip on DOX-induced H9c2 cardiomyocyte toxicity (MTT colorimetric method); conditions: 1 h pre-incubation, then 2.5 μM DOX 24 h, FIG. 2
Method: (1) H9c2 cells were pre-incubated with the alkaloid compound Hip for 1 h, and then added with 2.5 μM doxorubicin (DOX) for 24 h. The effect of the alkaloid compound Hip for DOX-induced cardiomyocyte apoptosis activity was screened by using the MTT colorimetric method. The optimal concentration range for action was determined.

[2] = 2.5 μM DOX 24 h, DOX model group

Row | SMILES | expression level of Cleaved-Caspase-3 vs Con group (Cleaved-Caspase-3; [2]) | expression level of p-JNK vs Con group (p-JNK; [2]) | viability of H9c2 cells vs Con group (H9c2 cardiomyocytes; Hip 80 μM) | viability of H9c2 cells vs Con group (H9c2 cardiomyocytes; Hip 0.1~40 μM) | difference from DOX model group in DOX-induced myocardial cytotoxicity ([1]; Hip 5-80 μM) | inhibition of DOX-induced myocardial cytotoxicity vs DOX model group ([1]; different Hip concentrations) | expression level of Cleaved-Caspase-3 vs DOX model group (Cleaved-Caspase-3; Hip 10 μM, 20 μM and 40 μM, 1 h, then 2.5 μM DOX 24 h) | expression level of p-JNK vs DOX model group (p-JNK; Hip high-dose group 40 μM) | expression level of p-JNK vs DOX model group (p-JNK; Hip low-dose group 10 μM) | expression level of p-JNK vs DOX model group (p-JNK; Hip middle-dose group 20 μM)
1 | COc1cccc2c1C(=O)c1c(O)c3c(c(O)c1C2=O)C[C@@](O)(C(=O)CO)C[C@@H]3O[C@H]1C[C@H](N)[C@H](O)[C@H](C)O1 [DOX, doxorubicin, reference compound] | can significantly increase the expression level of Cleaved-Caspase-3 | can significantly increase the expression level of p-JNK |  |  |  |  |  |  |  | 
2 | O=C1CC[C@H]2c3[nH]c4ccc(O)cc4c3CCN12 [Hip, Hippophamide] |  |  | a significant difference compared with the Con group | no statistical difference compared with the Con group | significantly or extremely significant different | can inhibit DOX-induced myocardial cytotoxicity | can decrease the increased level of Cleaved-Caspase-3 caused by DOX to varying degree | extremely significant differences | no statistical difference | extremely significant differences
